Source: PubChem BioAssay (NCI)
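Briefly, cells in 96-well plates were exposed to five compound concentrations for 48 h, and endpoints were estimated by linear interpolation. Here, GI50 denotes the concentration required for 50% inhibition of growth. Definition used: TGI = concentration required for complete inhibition of growth.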

Assays:
Experiment in all cases: DTP human tumour cell line panel, 48 h
MALME-3M melanoma = system: MALME-3M melanoma
COLO 205 colon = system: COLO 205 colon
SK-MEL-28 melanoma = system: SK-MEL-28 melanoma
OVCAR-8 ovarian = system: OVCAR-8 ovarian
ACHN renal = system: ACHN renal
NCI-H522 lung = system: NCI-H522 lung
HL-60(TB) leukemia = system: HL-60(TB) leukemia
HCT-116 colon = system: HCT-116 colon
NCI-H23 lung = system: NCI-H23 lung
A498 renal = system: A498 renal

SMILES | GI50 (MALME-3M melanoma) | TGI (MALME-3M melanoma) | GI50 (COLO 205 colon) | TGI (COLO 205 colon) | GI50 (SK-MEL-28 melanoma) | TGI (SK-MEL-28 melanoma) | GI50 (OVCAR-8 ovarian) | TGI (OVCAR-8 ovarian) | GI50 (ACHN renal) | TGI (ACHN renal) | GI50 (NCI-H522 lung) | TGI (NCI-H522 lung) | GI50 (HL-60(TB) leukemia) | TGI (HL-60(TB) leukemia) | GI50 (HCT-116 colon) | TGI (HCT-116 colon) | GI50 (NCI-H23 lung) | TGI (NCI-H23 lung) | TGI (A498 renal)
Cc1cc(OCc2nnc3n2N=C(c2ccc(Cl)cc2Cl)CS3)ccc1Cl | 68.9 µM | > 100 µM | 60.2 µM | > 100 µM | 79.3 µM | > 100 µM | 45 µM | > 100 µM | 45.4 µM | > 100 µM | 22.6 µM | 65 µM | 45.9 µM | > 100 µM | 53 µM | > 100 µM | 61 µM | > 100 µM | –
CN1C(Cl)=NS(=O)(=O)c2ccccc21 | – | – | – | > 100 µM | – | > 100 µM | – | > 100 µM | – | > 100 µM | – | > 100 µM | – | > 100 µM | – | > 100 µM | – | > 100 µM | > 100 µM
COc1cc2c(c(OC3OC(CO)C(O)C(O)C3O)c1)C(=O)CC(c1ccc(O)cc1)O2 (stereo not drawn) | – | – | – | > 100 µM | – | > 100 µM | – | > 100 µM | – | > 100 µM | – | > 100 µM | – | > 100 µM | – | > 100 µM | – | > 100 µM | > 100 µM
CO[C@H]1CC(c2ccc[nH]2)=N[C@]12O[C@@H](C)C[C@@H]1CCCCCCCc3ccc([nH]3)[C@H]12 | 0.886 µM | 3.62 µM | 0.794 µM | 4.68 µM | 1.92 µM | 8.26 µM | 1.17 µM | > 33.3 µM | 1.22 µM | 4.76 µM | 1.29 µM | 9.98 µM | 1.24 µM | 4.97 µM | 0.711 µM | 3.48 µM | 1.21 µM | 8.03 µM | –
O=C1NC(=O)C2C1N(Cc1ccccc1)C(=O)N2Cc1ccccc1 (stereo not drawn) | – | > 100 µM | – | > 100 µM | – | > 100 µM | – | – | – | > 100 µM | – | > 100 µM | – | > 100 µM | – | > 100 µM | – | > 100 µM | > 100 µM
O=C1CC(c2ccc(Cl)cc2)Oc2ccccc21 (stereo not drawn) | – | – | – | 89.1 µM | – | > 100 µM | – | > 100 µM | – | > 100 µM | – | – | – | 34.1 µM | – | > 100 µM | – | 40.2 µM | 73 µM
COC(=O)C1=C(c2ccc3c(c2)OCO3)OC(c2cc(OC)c(OC)c(OC)c2)C1 (stereo not drawn) | – | > 100 µM | – | 3.98 µM | – | > 100 µM | – | 92.4 µM | – | > 100 µM | – | – | – | – | – | 85.4 µM | – | > 100 µM | 8.04 µM
Cc1cccc2nc3cccc(C(=O)NCCN(C)C)c3nc12 | – | – | – | 3.14 µM | – | 2.93 µM | – | 15.8 µM | – | 5.8 µM | – | – | – | 12 µM | – | 10.8 µM | – | 3.47 µM | 1.35 µM
O=C(O)C1=C(C(=O)Nc2ccc(NC(=O)C3=C(C(=O)O)C4C=CC3C4)cc2)C2C=CC1C2 | – | > 100 µM | – | > 100 µM | – | > 100 µM | – | > 100 µM | – | > 100 µM | – | – | – | > 100 µM | – | > 100 µM | – | > 100 µM | > 100 µM
CN(/N=N/c1nc(OCc2ccccc2)c2[nH]cnc2n1)C(=O)Oc1ccc([N+](=O)[O-])cc1 | – | – | 10.2 µM | 29.7 µM | 12.4 µM | > 50 µM | 9.81 µM | 26.3 µM | – | – | – | – | 11.9 µM | > 50 µM | 8.68 µM | 16 µM | 8.44 µM | 16.4 µM | –
